Where two headings read alike, the source gives them in different places.
Columns and labels:
[1] = rats; cited from earlier work
[2] = humans; cited from earlier work
[3] = Uninfected host cell cytotoxicity counter screen; format: cell-based, human; details: human, uninfected HeLa-ACE2 cells; uninfected HeLa-ACE2, 24 h
Experimental: (§1) Compounds were acoustically transferred into 1,536-well clear plates (Greiner Part. No. 789091). HeLa-ACE2 cells were maintained as described for the infection assay and seeded in the assay-ready plates at 400 cells/well in DMEM with 2% FBS and plates were incubated for 24 hours at 37 5% CO2. To assess cell viability, the Image-iT DEAD green reagent (Thermo Fisher) was used according to manufacturer instructions. Cells were fixed with 4% paraformaldehyde, and counterstained with DAPI. Fixed cells were imaged using the ImageXpress Micro Confocal High-Content Imaging System (Molecular Devices) with a 10× objective, and total live cells per well quantified in the acquired images using the Live Dead Application Module (MetaXpress).
(§2) Image analysis was carried out with MetaXpress (version 6.5.4.532). Primary in vitro screen and the host cell cytotoxicity counter screen data were uploaded to Genedata Screener, Version 16.0.3-Standard. Data were normalized to neutral (DMSO) […] inhibitor controls (2.5 μM remdesivir for antiviral effect and 10 μM puromycin for infected host cell toxicity). For the uninfected host cell cytotoxicity counter screen 40 μM puromycin (Sigma) was used as the positive control. For dose response experiments compounds were tested in technical triplicates on different assay plates and dose curves were fitted with the four parameter Hill Equation. Technical replicate data were analyzed using median condensing.

[4] = tested on: SARS-CoV-2; details: for Hill coefficient (Nh): slope of the dose response curve
[5] = mouse, IV; cited from earlier work
[6] = dog, IV; cited from earlier work
[7] = monkey, IV; cited from earlier work
[8] = molecular target: T1, cytochrome P450 (CYP) 3A4 (Homo sapiens, UniProt P08684); details: human liver microsomes; cited from earlier work
T1 construct: from tissue; host or cells: human liver microsomes
T1 sequence (P08684 whole entry): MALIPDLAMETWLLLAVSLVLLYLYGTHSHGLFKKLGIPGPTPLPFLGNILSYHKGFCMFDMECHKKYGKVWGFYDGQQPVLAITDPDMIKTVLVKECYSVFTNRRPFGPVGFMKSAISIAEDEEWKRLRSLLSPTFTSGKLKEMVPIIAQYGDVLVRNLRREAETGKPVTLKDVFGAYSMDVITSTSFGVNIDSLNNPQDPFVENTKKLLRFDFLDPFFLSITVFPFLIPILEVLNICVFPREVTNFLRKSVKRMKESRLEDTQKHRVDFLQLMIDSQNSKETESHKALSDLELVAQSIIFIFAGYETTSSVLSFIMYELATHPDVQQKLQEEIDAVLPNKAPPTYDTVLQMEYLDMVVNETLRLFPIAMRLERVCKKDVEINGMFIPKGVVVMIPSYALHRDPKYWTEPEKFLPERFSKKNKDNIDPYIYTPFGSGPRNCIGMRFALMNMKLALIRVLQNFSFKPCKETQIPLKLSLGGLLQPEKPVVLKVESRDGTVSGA

[9] = tested on: SARS-CoV-2; details: cited from earlier work
[10] = tested on: SARS-CoV-2; details: read-out: CPE EC50; cited from earlier work
[11] = tested on: Vero E6 cells; details: cited from earlier work
[12] = i.v., 28 day, dosed daily; cited from earlier work
[13] = intravenously, cited from earlier work
[14] = 30 mg/kg and 60 mg/kg oral gavage; cited from earlier work
[15] = in vivo, cited from earlier work
[16] = tested on: SARS-CoV-2; experiment: microbe, parasite or virus in culture
[17] = molecular target: T2, LFA-1 interaction with ICAM-1 (Homo sapiens, UniProt P05107+P20701); details: Jurkat T cells; cited from earlier work
T2 construct: endogenous in cells; host or cells: Jurkat T cells
T2 sequence (P20701 26-1170): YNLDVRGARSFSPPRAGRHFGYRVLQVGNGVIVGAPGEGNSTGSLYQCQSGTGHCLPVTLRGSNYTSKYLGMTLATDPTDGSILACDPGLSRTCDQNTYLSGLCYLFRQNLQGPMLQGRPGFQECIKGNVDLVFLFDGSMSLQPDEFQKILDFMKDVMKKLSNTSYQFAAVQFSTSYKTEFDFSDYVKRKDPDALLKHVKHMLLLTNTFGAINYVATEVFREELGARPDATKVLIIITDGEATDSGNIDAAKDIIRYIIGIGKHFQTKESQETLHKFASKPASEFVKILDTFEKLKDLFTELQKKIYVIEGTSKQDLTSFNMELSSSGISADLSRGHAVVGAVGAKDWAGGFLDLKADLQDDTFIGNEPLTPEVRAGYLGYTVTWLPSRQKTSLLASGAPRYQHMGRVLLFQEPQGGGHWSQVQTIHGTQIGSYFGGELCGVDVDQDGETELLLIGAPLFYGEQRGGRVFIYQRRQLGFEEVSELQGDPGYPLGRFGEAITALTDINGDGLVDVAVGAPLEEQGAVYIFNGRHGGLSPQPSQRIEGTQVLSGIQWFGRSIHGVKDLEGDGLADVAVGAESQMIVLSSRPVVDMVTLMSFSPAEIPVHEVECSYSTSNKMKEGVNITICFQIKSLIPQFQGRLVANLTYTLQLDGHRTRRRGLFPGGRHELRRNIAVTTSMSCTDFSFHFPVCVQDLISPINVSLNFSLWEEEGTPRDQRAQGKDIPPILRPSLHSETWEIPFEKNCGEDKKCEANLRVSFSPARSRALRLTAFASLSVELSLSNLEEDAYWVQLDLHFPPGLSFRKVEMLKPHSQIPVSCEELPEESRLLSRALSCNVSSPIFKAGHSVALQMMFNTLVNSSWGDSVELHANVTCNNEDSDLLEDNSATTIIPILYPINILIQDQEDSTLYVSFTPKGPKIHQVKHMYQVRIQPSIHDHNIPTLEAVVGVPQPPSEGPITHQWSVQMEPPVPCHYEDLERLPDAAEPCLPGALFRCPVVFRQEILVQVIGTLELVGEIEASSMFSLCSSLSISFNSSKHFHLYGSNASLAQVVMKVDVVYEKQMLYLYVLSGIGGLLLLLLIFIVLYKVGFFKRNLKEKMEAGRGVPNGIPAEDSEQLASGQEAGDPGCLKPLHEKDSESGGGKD
T2 sequence (P05107 23-769): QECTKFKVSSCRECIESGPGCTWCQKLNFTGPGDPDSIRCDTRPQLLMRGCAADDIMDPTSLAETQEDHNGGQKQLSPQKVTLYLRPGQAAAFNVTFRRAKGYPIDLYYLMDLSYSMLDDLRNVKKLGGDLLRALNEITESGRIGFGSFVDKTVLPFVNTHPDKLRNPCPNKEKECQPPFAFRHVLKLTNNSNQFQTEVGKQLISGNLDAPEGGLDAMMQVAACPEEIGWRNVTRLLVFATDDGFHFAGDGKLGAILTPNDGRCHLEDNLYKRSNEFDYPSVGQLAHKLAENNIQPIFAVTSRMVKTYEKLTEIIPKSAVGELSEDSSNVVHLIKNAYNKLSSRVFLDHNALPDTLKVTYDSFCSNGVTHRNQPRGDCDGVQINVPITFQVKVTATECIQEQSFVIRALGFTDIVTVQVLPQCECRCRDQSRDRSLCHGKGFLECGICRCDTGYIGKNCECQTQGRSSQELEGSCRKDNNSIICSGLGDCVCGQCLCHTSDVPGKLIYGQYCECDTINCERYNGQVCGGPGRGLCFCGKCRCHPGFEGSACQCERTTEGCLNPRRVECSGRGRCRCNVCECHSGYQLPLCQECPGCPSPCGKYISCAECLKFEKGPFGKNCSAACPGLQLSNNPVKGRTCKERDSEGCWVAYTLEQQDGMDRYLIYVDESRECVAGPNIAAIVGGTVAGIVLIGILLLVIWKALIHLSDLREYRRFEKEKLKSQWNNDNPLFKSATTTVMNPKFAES

[18] = tested on: adhesion of HuT 78 cells to ICAM-1; details: cited from earlier work
[19] = tested on: HIV-1; details: cited from earlier work
[20] = tested on: L1210 cancer cells; details: cited from earlier work
[21] = tested on: CEM cancer cells; details: cited from earlier work
[22] = tested on: MP-2 cancer cells; details: cited from earlier work
[23] = tested on: BxPC-3 cancer cells; details: cited from earlier work
[24] = molecular target: adenosine A2 receptors; details: cited from earlier work
[25] = tested on: HeLa-ACE2 cells; experiment: Uninfected host cell cytotoxicity counter screen; format: cell-based, human; details: uninfected HeLa-ACE2, 24 h
Experimental: as §1, §2

[26] = mice; cited from earlier work
[27] = humans; cited from earlier work; remark: listed apart in the source
[28] = tested on: SARS-CoV-2; details: cited from earlier work; remark: listed apart in the source
[29] = tested on: HeLa-ACE2 cells; details: Bakowski et al, 2020; cited from earlier work
[30] = molecular target: pig striatum A2A receptor (Sus scrofa, UniProt K9IW67); details: cited from earlier work
Sequence of pig striatum A2A receptor (K9IW67 entry or part of it): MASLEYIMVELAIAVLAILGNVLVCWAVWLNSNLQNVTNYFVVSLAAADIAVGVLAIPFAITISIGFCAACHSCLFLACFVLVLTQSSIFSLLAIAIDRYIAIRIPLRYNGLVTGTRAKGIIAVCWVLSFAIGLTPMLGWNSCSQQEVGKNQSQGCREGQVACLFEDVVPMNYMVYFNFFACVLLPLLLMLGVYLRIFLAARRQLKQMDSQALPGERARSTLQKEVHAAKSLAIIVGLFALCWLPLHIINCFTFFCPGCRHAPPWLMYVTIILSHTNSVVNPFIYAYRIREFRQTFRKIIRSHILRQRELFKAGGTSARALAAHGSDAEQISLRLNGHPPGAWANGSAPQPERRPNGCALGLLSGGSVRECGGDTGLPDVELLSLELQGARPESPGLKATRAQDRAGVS

[31] = pig, in vivo; cited from earlier work
[32] = Severe acute respiratory syndrome coronavirus 2, HeLa-ACE2, 24 h
[33] = Severe acute respiratory syndrome coronavirus 2, HeLa-ACE2, CoV-2/HeLa-ACE2 assay, unit uM

Cc1c(-c2ccc(O)cc2)n(Cc2ccc(OCCN3CCCCCC3)cc2)c2ccc(O)cc12 [Bazedoxifene]
safely tolerated dose [1]: 100 mg/kg/day
safely tolerated dose [2]: 20 mg/day

CNCc1ccc(-c2cc(-c3nc(-c4ccc(S(=O)(=O)C(C)C)cc4)cnc3N)on2)cc1 [Berzosertib]
CC50 at 24 h [3]: 3140 nM
activity in the HeLa-ACE2 cell-based SARS-CoV-2 assay (in words) [4]: demonstrated activity
Hill coefficient (Nh) [4]: 1.485
systemic clearance (CL) [5]: 82 mL/min/kg
systemic clearance (CL) [6]: 13 mL/min/kg
systemic clearance (CL) [7]: 29 mL/min/kg
enzyme mainly metabolizing the drug [8]: cytochrome P450 (CYP) 3A4
IC50 [9]: < 25 nM
EC50 [10]: 710 nM
CC50 [11]: 11200 nM
STD10 [12]: 30 mg/kg/day
safe and well tolerated clinical dose, no DLTs observed ([13]; once-weekly): 480 mg/m2
safe and well tolerated clinical dose, no DLTs observed ([13]; twice weekly): 240 mg/m2
tolerability (in words) [14]: no adverse effects or toxicity
half-life (t 1/2) [15]: about 17 hours
EC50 [16, 32]: 0.114 µM
EC50 [16, 33]: 0.114 µM

CS(=O)(=O)c1cccc(C[C@H](NC(=O)c2c(Cl)cc3c(c2Cl)CCN(C(=O)c2ccc4ccoc4c2)C3)C(=O)O)c1 [Lifitegrast, N-[[2-(6-benzofuranylcarbonyl)-5,7-dichloro-1,2,3,4-tetrahydro-6-isoquinolinyl]carbonyl]-3-(methylsulfonyl)-L-phenylalanine]
IC50 [17]: 2.98 nM
IC50 [18]: 9 nM

Cc1cccc(C)c1OCC(=O)N[C@@H](Cc1ccccc1)[C@@H](O)C[C@H](Cc1ccccc1)NC(=O)[C@H](C(C)C)N1CCCNC1=O [Lopinavir, N-[(1S,3S,4S)-4-[[2-(2,6-dimethylphenoxy)acetyl]amino]-3-hydroxy-5-phenyl-1-(phenylmethyl)pentyl]tetrahydro-aS-(1-methylethyl)-2-oxo-1(2H)-pyrimidineacetamide]
EC50 [19]: 5 to 52 nM

C[C@H](NP(=O)(OC[C@H]1O[C@@H](n2ccc(N)nc2=O)C(F)(F)[C@@H]1O)Oc1ccccc1)C(=O)OCc1ccccc1 (stereo partly drawn) [NUC-1031, N-(2′-deoxy-2′,2′-difluoro-P-phenyl-5′-cytidylyl)-L-alanine, phenylmethyl ester]
IC50 [20]: 35 nM
IC50 [21]: 30 nM
IC50 [22]: 60 nM
IC50 [23]: 40 nM

CNC(=O)[C@H]1O[C@@H](n2cnc3c(NCc4cccc(I)c4)ncnc32)[C@H](O)[C@@H]1O [Piclidenoson, 1-deoxy-1-[6-[[(3-iodophenyl)methyl]amino]-9H-purin-9-yl]-N-methyl-β-D-ribofuranuronamide]
Ki [24]: 3100 nM

Cc1c(-c2ccc(O)cc2)n(Cc2ccc(OCCN3CCCCC3)cc2)c2ccc(O)cc12 [Pipendoxifene]
CC50 [25]: > 39800 nM
EC90 [4]: 14300 nM
activity in the HeLa-ACE2 cell-based SARS-CoV-2 assay (in words) [4]: demonstrated activity
EC50 ([4]; CoV-2/HeLa-ACE2 assay, unit uM): 8.42 µM
EC10 ([4]; derived from the graph): 5012 nM
Hill coefficient (Nh) [4]: 4
safely tolerated dose [26]: at least 20 mg/kg/day
half-life (t ½) ([15]; hamster): 30 h
half-life (t 1/2) [15]: 15.8 to 27.3 h
safely tolerated dose [27]: up to 200 mg/daily
EC50 [16, 32]: 8.24 µM
EC50 [16, 33]: 8.24 µM
EC90 ([16]; Severe acute respiratory syndrome coronavirus 2, HeLa-ACE2, read-out: EC90 (Hill equation, Equation I)): 15000 nM
EC90 ([16]; Severe acute respiratory syndrome coronavirus 2, HeLa-ACE2, read-out: EC90 range from both equations): 14300 to 15000 nM

Nc1nc(Nc2ccc3c(c2)CC[C@@H](N2CCCC2)CC3)nn1-c1cc2c(nn1)-c1ccccc1CCC2 [R-428]
synergy score with remdesivir against SARS-CoV-2 ([28]; Bakowski et al, 2020): 7.22
EC50 ([28]; ReFRAME screen, same methods (Bakowski et al, 2020)): 2880 nM
CC50 [29]: > 40000 nM

CNC(=O)c1cnn(-c2nc(N)c3ncn([C@@H]4O[C@H](CO)[C@@H](O)[C@H]4O)c3n2)c1 [Regadenoson, 2-[4-[(methylamino)carbonyl]-1H-pyrazol-1-yl]-adenosine]
Ki [30]: 1.1 nM
half-time to reversal [31]: 1.9 to 2.6 min
increase of coronary blood flow [31]: 3.4- to 3.8 fold

Source: patent US12551475B2, “Methods and compositions for treating RNA viral infections” (Model Medicines, Inc., priority 2020, dated 2026)
